Assay results: patent US9260429B2, “Pyrido[3,4-B]indoles and methods of use” (Medivation Technologies, Inc., priority 2008, dated 2016)

What was measured:
[1] = molecular target: T1, human recombinant adrenergic α2A receptor (Homo sapiens, UniProt P08913); experiment: Adrenergic α2A radioligand binding ([3H]MK-912); conditions: 1 h; read-out: Percent Inhibition of ligand binding Adrenergic (1 μM ligand conc.) α2A
T1 construct: expressed in transfected cells; host or cells: insect Sf9 cells
T1 sequence (P08913 1-465): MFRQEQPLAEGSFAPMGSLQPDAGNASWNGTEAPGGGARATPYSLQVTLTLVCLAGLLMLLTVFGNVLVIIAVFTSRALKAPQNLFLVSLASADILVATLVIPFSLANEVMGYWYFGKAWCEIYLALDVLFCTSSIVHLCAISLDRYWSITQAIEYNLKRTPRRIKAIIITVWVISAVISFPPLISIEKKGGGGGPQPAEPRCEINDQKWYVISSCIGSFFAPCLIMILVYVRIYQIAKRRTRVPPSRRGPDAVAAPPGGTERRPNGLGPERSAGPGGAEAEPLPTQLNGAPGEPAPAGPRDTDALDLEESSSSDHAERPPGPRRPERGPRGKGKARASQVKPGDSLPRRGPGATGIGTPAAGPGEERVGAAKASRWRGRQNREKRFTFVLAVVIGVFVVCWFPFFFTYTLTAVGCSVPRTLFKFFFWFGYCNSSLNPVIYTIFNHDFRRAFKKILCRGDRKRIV
Procedure: To evaluate in radioligand binding assays the activity of compounds of the invention, human recombinant adrenergic α2A receptor expressed in insect Sf9 cells (Uhlen S et al. J Pharmacol Exp Ther. 271:1558, 1994) in a modified Tris-HCl buffer (50 mM Tris-HCl, pH 7.4, 12.5 mM MgCl2, 2 mM EDTA) was used. Compounds of invention were incubated with 1 nM [^3H]MK-912 for 60 minutes at 25° C. MK912 is (2S-trans)-1,3,4,5′,6,6′,7,12b-octahydro-1′,3′-dimethyl-spiro[2H-benzofuro[2,3-a]quinolizine-2,4′(1′H)-pyrimidin]-2′(3′H)-one hydrochloride Non-specific binding was estimated in the presence of 10 μM WB-4101 (2-(2,6-Dimethoxyphenoxyethyl)aminomethyl-1,4-benzodioxane hydrochloride). Receptor proteins were filtered and washed, the filters were then counted to determine [^3H]MK-912 specifically bound. Compounds were screened at 1 μM or lower, using 1% DMSO as vehicle. Biochemical assay results are presented as the percent inhibition of specific binding in Table 4.

[2] = molecular target: T2, human recombinant histamine H1 receptor (Homo sapiens, UniProt P35367); experiment: Histamine H1 radioligand binding ([3H]Pyrilamine); conditions: 1 μM; read-out: Binding data (Percentage Inhibition) Histamine Binding (1 μM) H1
T2 construct: expressed in transfected cells; host or cells: CHO cells
T2 sequence (P35367 whole entry): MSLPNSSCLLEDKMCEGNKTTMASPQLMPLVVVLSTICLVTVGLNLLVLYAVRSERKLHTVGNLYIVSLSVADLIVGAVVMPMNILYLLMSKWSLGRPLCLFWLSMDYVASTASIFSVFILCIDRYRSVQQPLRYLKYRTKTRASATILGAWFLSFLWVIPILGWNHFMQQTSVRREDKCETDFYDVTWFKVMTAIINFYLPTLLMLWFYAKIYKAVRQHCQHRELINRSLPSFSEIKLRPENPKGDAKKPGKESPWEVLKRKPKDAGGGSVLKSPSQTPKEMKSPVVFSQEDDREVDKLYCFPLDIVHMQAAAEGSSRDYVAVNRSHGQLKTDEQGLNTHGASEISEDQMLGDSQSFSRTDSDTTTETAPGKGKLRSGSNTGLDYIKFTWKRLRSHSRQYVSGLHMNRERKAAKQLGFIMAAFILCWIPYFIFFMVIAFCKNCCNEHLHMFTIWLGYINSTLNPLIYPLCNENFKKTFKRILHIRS
Outline: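 Binding to the human recombinant histamine H1 receptor, expressed in CHO cells, was measured in a modified Tris-HCl buffer (50 mM Tris-HCl, pH 7.4, 2 mM MgCl2, 100 mM NaCl, 250 mM Sucrose). Compounds were incubated with 1.2 nM [3H]Pyrilamine for 180 minutes at 25° C, with 1 μM pyrilamine defining non-specific binding. After filtration and washing, filter counts gave percent inhibition of specific binding.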

[3] = molecular target: T3, human recombinant serotonin (5-Hydroxytryptamine) 5-HT6 receptor (Homo sapiens, UniProt P50406); experiment: Serotonin 5-HT6 radioligand binding ([3H]LSD); conditions: 2 h; read-out: Percent Inhibition of ligand binding Serotonin (1 μM ligand concentration) 5-HT6
T3 construct: expressed in transfected cells; host or cells: human HeLa cells
T3 sequence (P50406 whole entry): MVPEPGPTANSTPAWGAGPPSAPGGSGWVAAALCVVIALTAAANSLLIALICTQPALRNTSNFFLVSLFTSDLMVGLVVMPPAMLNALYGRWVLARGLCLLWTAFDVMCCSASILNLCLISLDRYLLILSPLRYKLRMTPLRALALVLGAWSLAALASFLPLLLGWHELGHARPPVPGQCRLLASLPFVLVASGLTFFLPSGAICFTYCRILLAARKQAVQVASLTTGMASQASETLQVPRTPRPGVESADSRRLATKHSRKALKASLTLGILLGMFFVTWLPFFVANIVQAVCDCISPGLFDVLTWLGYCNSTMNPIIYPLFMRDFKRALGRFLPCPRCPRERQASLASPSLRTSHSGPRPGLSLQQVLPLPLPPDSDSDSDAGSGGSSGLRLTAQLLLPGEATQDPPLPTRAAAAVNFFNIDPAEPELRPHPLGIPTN
Outline: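 Human 5-HT6 receptor expressed in HeLa cells, in Tris-HCl pH 7.4 with 150 mM NaCl, ascorbic acid and BSA. Compounds at 1 μM or lower (1% DMSO) incubated 120 min at 37° C with 1.5 nM [3H]LSD. Non-specific binding defined with serotonin; filter counting gives % inhibition of specific binding.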

[4] = molecular target: T4, human recombinant serotonin (5-Hydroxytryptamine) 5-HT2A receptor (Homo sapiens, UniProt P28223); experiment: Serotonin 5-HT2A radioligand binding ([3H]Ketanserin); conditions: 1 h; read-out: Percent Inhibition of ligand binding Serotonin (1 μM ligand concentration) 5-HT2A
T4 construct: expressed in transfected cells; host or cells: CHO-K1 cells
T4 sequence (P28223 whole entry): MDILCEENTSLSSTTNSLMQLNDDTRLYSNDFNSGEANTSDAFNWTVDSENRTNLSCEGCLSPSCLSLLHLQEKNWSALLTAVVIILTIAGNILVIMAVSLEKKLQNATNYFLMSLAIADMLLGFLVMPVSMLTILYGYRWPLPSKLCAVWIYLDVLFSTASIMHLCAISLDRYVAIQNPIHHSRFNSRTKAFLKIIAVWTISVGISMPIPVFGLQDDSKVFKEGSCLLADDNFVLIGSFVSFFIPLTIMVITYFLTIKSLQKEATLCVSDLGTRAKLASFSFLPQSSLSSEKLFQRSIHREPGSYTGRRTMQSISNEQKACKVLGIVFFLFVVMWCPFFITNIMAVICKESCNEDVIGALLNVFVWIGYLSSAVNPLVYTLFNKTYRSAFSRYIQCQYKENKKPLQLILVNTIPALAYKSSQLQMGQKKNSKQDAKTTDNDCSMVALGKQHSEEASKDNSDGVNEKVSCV
Outline: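 Membranes from CHO-K1 cells expressing the receptor, in 50 mM Tris-HCl pH 7.4, incubated 60 min at 25° C with 0.5 nM [3H]Ketanserin; 1 μM Mianserin defines non-specific binding. Filtration and counting; values are % inhibition of specific binding at 1 μM or lower, 1% DMSO.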

| SMILES | inhibition at 1 µM [1] [%] | inhibition at 1 µM [2] [%] | inhibition at 1 µM [3] [%] | inhibition at 1 µM [4] [%] |
| --- | --- | --- | --- | --- |
| Cc1ccc2c(c1)c1c(n2CCc2ccc(C)nc2)CN(C)CC1 [Compound 1, 2,3,4,9-tetrahydro-2,6-dimethyl-9-(2-(6-methylpyridin-3-yl)ethyl)-1H-pyrido[3,4-b]indole] | 74 | 77 | 5 |  |
| Cc1ccc2c(c1)c1c(n2CCC2CCCCC2)CN(C)CC1 [Compound 2, 9-(2-cyclohexylethyl)-2,3,4,9-tetrahydro-2,6-dimethyl-1H-pyrido[3,4-b]indole] | 81 | 95 | 58 |  |
| CN1CCc2c(n(CCc3ccc(F)cc3)c3ccc(Cl)cc23)C1 [Compound 3, 9-(4-fluorophenethyl)-6-chloro-2,3,4,9-tetrahydro-2-methyl-1H-pyrido[3,4-b]indole] | 99 | 83 | 100 |  |
| Cc1ccc2c(c1)c1c(n2CCc2ccc(C(F)(F)F)nc2)CN(C)CC1 [Compound 5, 9-(2-(6-(trifluoromethyl)pyridin-3-yl)ethyl)-2,3,4,9-tetrahydro-2,6-dimethyl-1H-pyrido[3,4-b]indole] | 74 | 35 | 6 | 51 |
| CC(C)CCN(C)C(=O)Cn1c2c(c3cc(Cl)ccc31)CCN(C)C2 [Compound 14, 2-(6-chloro-1,2,3,4-tetrahydro-2-methylpyrido[3,4-b]indol-9-yl)-N-isopentyl-N-methylacetamide] | 19 | 0 | 12 | 27 |
| CN1CCc2c(n(CC(=O)Nc3ccc(F)cc3)c3ccc(Cl)cc23)C1 [Compound 15, 2-(6-chloro-1,2,3,4-tetrahydro-2-methylpyrido[3,4-b]indol-9-yl)-N-(4-fluorophenyl)acetamide] | 15 | 0 | -2 | 6 |
| CN1CCc2c(n(CC(=O)N(C)C)c3ccc(Cl)cc23)C1 [Compound 16, 2-(6-chloro-1,2,3,4-tetrahydro-2-methylpyrido[3,4-b]indol-9-yl)-N,N-dimethylacetamide] | -4 | 16 | 9 | 10 |
| CN1CCc2c(n(CC(=O)NC3CCCCC3)c3ccc(Cl)cc23)C1 [Compound 17, 2-(6-chloro-1,2,3,4-tetrahydro-2-methylpyvrido[3,4-b]indol-9-yl)-N-cyclohexylacetamide] | 17 | 54 | 3 | 17 |
| CN1CCc2c(n(CC(=O)N(C)C3CCCCC3)c3ccc(Cl)cc23)C1 [Compound 18, 2-(6-chloro-1,2,3,4-tetrahydro-2-methylpyrido[3,4-b]indol-9-yl)-N-cyclohexyl-N-methylacetamide] | 4 | 10 | 1 | -1 |
| COC(=O)Cn1c2c(c3cc(C)ccc31)CCN(C)C2 [Compound 21, methyl 2-(1,2,3,4-tetrahydro-2,6-dimethylpyrido[3,4-b]indol-9-yl)acetate] | 0 | 3 | 6 | 4 |
| CN1CCc2c(n(CCCc3ccccc3)c3ccc(Cl)cc23)C1 [Compound 29, 6-chloro-2,3,4,9-tetrahydro-2-methyl-9-(3-phenylpropyl)-1H-pyrido[3,4-b]indole] | 96 | 98 | 62 | 83 |
| CN1CCc2c(n(CCN3CCCCC3)c3ccc(Cl)cc23)C1 [Compound 34, 6-chloro-2,3,4,9-tetrahydro-2-methyl-9-(2-(piperidin-1-yl)ethyl)-1H-pyrido[3,4-b]indole] | 66 | 56 | 16 | 31 |
| CN1CCc2c(n(CCC3CCCC3)c3ccc(Cl)cc23)C1 [Compound 35, 6-chloro-9-(2-cyclopentylethyl)-2,3,4,9-tetrahydro-2-methyl-1H-pyrido[3,4-b]indole] | 88 | 98 | 67 | 69 |
| CC1CCN(C(=O)Cn2c3c(c4cc(Cl)ccc42)CCN(C)C3)CC1 [Compound 38, 2-(6-chloro-1,2,3,4-tetrahydro-2-methylpyrido[3,4-b]indol-9-yl)-1-(4-methylpiperidin-1-vyl)ethanone] | 15 | 16 | -2 |  |
| CN1CCc2c(n(CC(=O)N3CCCC3)c3ccc(Cl)cc23)C1 [Compound 40, 2-(6-chloro-1,2,3,4-tetrahydro-2-methylpyrido[3,4-b]indol-9-yl)-1-(pyrrolidin-1-yl)ethanone] | 1 | 7 | 6 | 5 |
| Cc1ccc2c(c1)c1c(n2CCC(=O)N2CCCCC2)CN(C)CC1 [Compound 43, 3-(1,2,3,4-tetrahydro-2,6-dimethylpyrido[3,4-b]indol-9-yl)-1-(piperidin-1-yl)propan-1-one] | 42 | 30 | 3 | 69 |
| CN1CCc2c(n(CCCC(=O)N3CCCCC3)c3ccc(Cl)cc23)C1 [Compound 44, 4-(6-chloro-1,2,3,4-tetrahydro-2-methylpyrido[3,4-b]indol-9-yl)-1-(piperidin-1-yl)butan-1-one] | 77 | 62 | 12 | 73 |
| CN1CCc2c(n(CC(=O)O)c3ccc(Cl)cc23)C1 [Compound 52, 2-(6-chloro-1,2,3,4-tetrahydro-2-methylpyrido[3,4-b]indol-9-yl)acetic acid] | 4 | 3 | -4 | -11 |
| Cc1ccc2c(c1)c1c(n2CC(=O)O)CN(C)CC1 [Compound 53, 2-(1,2,3,4-tetrahydro-2,6-dimethylpyrido[3,4-b]indol-9-yl)acetic acid] | 5 | 5 | -8 | -6 |
| COC(=O)Cn1c2c(c3cc(Cl)ccc31)CCN(C)C2 [Compound 54, methyl 2-(6-chloro-2-methyl-3,4-dihydro-1H-pyrido[3,4-b]indol-9(2H)-yl)acetate] | 4 | 5 | 8 | 0 |
| CN1CCc2c(n(CC(=O)N3CCNCC3)c3ccc(Cl)cc23)C1 [Compound 55, 2-(6-chloro-2-methyl-3,4-dihydro-1H-pyrido[3,4-b]indol-9(2H)-yl)-1-(piperazin-1-yl)ethanone] | 10 | 90 | 0 | 17 |
| C#CCn1c2c(c3cc(Cl)ccc31)CCN(C)C2 [Compound 125, 6-chloro-2,3,4,9-tetrahydro-2-methyl-9-(prop-2-yn1)-1H-pyrido[3,4-b]indole] | 89 | 83 | 66 |  |
